Laboratory results: patent US9655906B2, “Tricyclic indazole compound, method of preparation and pharmaceutical composition containing it” (AZIENDE CHIMICHE RIUNITE ANGELINI FRANCESCO A.C.R.A.F S.p.A., priority 2010, dated 2017)
Structures can show the parent of a compound that is named as a salt.

Key:
serotoninergic system = test: Test C: 5-HTP-induced head twitch test in mice; format: in vivo, mouse; conditions: male CD-1 mice; 5 mg/kg intraperitoneally; 5-HTP 300 mg/kg i.p. 30 min later; counted 24 to 26 minutes after 5-HTP
Procedure: The interactions of the compounds of formula (I) according to the present invention with the serotoninergic system was tested following the “head twitch” model in the mouse, according to the standard methodology described by Sztanke K., Fidecka S., Kedzierska E., Karczmarzyk Z., Pihlaja K., Matosiuk D. (2005) in “Antionociceptive activity of new imidazole carbonyl derivatives. Part 4. Synthesis and pharmacological activity of 8-aryl-3,4-dioxo-2H,8H-6,7-dihydrimidazo[2,1c][1,2,4]triazine.” Eur. J. Med. Chem. 40: 127-134, and in Corne S. J., Pickering R. W., Warner B. T. (1963) “A method for assessing the effects of drugs on the central actions of 5-hydroxytryptamine.” Br. J. Pharmacol. Chemother. 20: 106-120.
The “head twitches” are a characteristic shaking of the head induced in the animals by the increase in central levels of serotonin.
Male CD-1 mice weighing 25-30 g were used for the “head twitch” test. Molecules were suspended in a 0.5% methylcellulose aqueous solution (MTC) and the animals were treated intraperitoneally with the test compounds at the dose of 5 mg/kg (10 ml/kg body weight). The control animals received the vehicle alone (MTC) by the same route. Head twitches, considered as a specific behavioural model for the activation of serotoninergic neurons, were induced by an intraperitoneal administration of 5-hydroxytryptophan (5-HTP), a precursor of serotonin (5-HT), dissolved in a 0.5% MTC solution and given at 300 mg/kg 30 min following drug administration.
The number of head twitches, which constitutes the parameter for assessment of the serotoninergic response, was measured in the interval from 24 to 26 minutes after administration of 5-HTP.

human 5-HT2A receptor = molecular target: T1, human 5-HT2A receptor (Homo sapiens, UniProt P28223); test: Test A: binding to human recombinant 5-HT2A serotonin receptor, [3H]-ketanserin displacement; conditions: membranes from CHO-K1 cells expressing human 5-HT2A; 0.5 nM [3H]-ketanserin; 1 hour at 25° C.; read-out: 5-HT2A (pKi) (converted)
T1 construct: expressed in transfected cells
T1 sequence (P28223 whole entry): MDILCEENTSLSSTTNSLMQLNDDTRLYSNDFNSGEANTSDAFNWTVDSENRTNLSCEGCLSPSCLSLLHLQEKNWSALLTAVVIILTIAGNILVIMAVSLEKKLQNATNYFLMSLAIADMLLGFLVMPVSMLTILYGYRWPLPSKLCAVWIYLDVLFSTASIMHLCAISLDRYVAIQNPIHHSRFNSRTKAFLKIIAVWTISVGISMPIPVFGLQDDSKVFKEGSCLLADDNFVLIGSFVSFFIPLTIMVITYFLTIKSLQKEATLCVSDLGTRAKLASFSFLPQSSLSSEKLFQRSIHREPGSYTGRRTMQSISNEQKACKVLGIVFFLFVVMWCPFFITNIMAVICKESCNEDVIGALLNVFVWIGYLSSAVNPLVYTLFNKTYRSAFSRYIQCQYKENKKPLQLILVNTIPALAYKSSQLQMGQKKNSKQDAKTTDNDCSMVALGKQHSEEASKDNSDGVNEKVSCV
Procedure: In particular, binding to the human 5-HT2A serotonin receptor was performed using, as starting material, a preparation of membranes from stable recombinant CHO-K1 cell line expressing the human 5-HT2A receptor.
The non-specific binding was measured in the presence of 1 μM mianserin. The assay was conducted in Tris-HCl 50 mM buffer (pH 7.4 at 37° C.), with incubation for 1 hour at 25° C. The test compounds were dissolved in DMSO, then diluted in buffer (final DMSO concentration 0.01%) and plated on 96-well plates. The compounds were tested in duplicate in an 8-points concentration response curve (in a Log scale ranging from 10^−12 to 10^−5 M).
After incubation, the membranes were filtered on glass-fibre filters (GF/B) (Unifilter, Packard) treated with 0.5% polyethyleneimine. Then the filters were washed with buffer solution and oven-dried for 30 minutes at 45° C. The scintillation liquid was added to each well, and at least 16 hours later the radioactivity was measured for 1 minute using a TopCount (Packard).
The IC50 values for each compound were calculated using non-linear regression analysis (GraphPad PRISM software) and the inhibition constants Ki were determined using the equation described by Cheng Y. and Prussof W. H. (1973) “Relationship between the inhibition constant (Ki) and the concentration of inhibitor which causes 50 percent inhibition (I50) of an enzyme reaction.” Biochem. Pharmacol. 22: 3099-3108.

human 5-HT2C receptor = molecular target: T2, human 5-HT2C receptor (Homo sapiens, UniProt P28335); test: Test B: binding to human 5-HT2C serotonin receptor, [3H]-mesulergine displacement; conditions: membranes from CHO-K1 cells expressing human 5-HT2C; 1 nM [3H]-mesulergine; 1 hour at 25° C.; read-out: (h)5-HT2c (pKi) (converted)
T2 construct: expressed in transfected cells
T2 sequence (P28335 33-458): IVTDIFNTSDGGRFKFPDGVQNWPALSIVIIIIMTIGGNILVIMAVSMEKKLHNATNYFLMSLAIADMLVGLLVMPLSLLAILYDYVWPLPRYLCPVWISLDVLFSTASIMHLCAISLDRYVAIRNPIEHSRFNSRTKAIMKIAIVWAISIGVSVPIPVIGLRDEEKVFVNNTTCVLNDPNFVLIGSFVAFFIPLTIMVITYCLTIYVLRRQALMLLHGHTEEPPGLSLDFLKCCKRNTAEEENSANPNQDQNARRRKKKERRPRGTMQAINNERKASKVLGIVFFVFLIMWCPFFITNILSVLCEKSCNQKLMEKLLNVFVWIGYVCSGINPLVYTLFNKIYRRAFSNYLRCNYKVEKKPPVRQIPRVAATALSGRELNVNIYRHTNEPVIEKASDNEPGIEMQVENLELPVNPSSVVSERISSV
Procedure: 69: 1449-1458. In particular, binding to the human serotonin 5-HT2C receptor was performed using, as starting material, a preparation of membranes from stable recombinant CHO-K1 cell line expressing the human 5-HT2C receptor. […] The non-specific binding was measured in the presence of 1 μM mianserin. The assay was conducted in Tris-HCl 50 mM buffer (pH 7.4 at 37° C.), 0.1% Ascorbic Acid, 10 μM Pargyline, with incubation for 1 hour at 25° C. The test compounds were dissolved in DMSO, then diluted in buffer (final DMSO concentration 0.01%) and plated on 96-well plates The compounds were tested in duplicate in an 8-points concentration response curve (in a Log scale ranging from 10^−12 to 10^−5 M). SB 242084 was used as reference compound. […] Then the filters were washed with buffer solution and oven-dried for 30 minutes at 45° C. The scintillation liquid was added to each well, and at least 16 hours later the radioactivity was measured for 1 minute using a TopCount (Packard). The IC50 values for each compound were calculated using non-linear regression analysis (GraphPad PRISM software) and the inhibition constants Ki were determined using the equation described by Cheng Y. and Prussof W. H. […] Pharmacol. 22: 3099-3108.

Row | SMILES | Ki (human 5-HT2A receptor) | % INHIBITION (number of head twitches vs vehicle treated group) (serotoninergic system) | Ki (human 5-HT2C receptor)
1 | Cl.O=C1c2c3ccccc3nn2CCN1CC1CCN(CCc2ccc(F)cc2)CC1 [Compound 1, 2-({1-[2-(4-fluorophenyl)ethyl]piperidin-4-yl}methyl)-3,4-dihydropyrazino[1,2-b]indazol-1(2H)-one hydrochloride] | 19.5 nM | 50% | 1700 nM
2 | O=C1c2c3ccccc3nn2CCN1CC1CCCN(CCc2ccc(F)cc2)C1 (stereo not shown) [Compound 2, 2-({1-[2-(4-fluorophenyl)ethyl]piperidin-3-yl}methyl)-3,4-dihydropyrazino[1,2-b]indazol-1(2H)-one] | 1150 nM |  | 
3 | O=C1c2c3ccccc3nn2CCCN1CC1CCCN(CCc2ccc(F)cc2)C1 (stereo not shown) [Compound 10, 2-({1-[2-(4-fluorophenyl)ethyl]piperidin-3-yl}methyl)-2,3,4,5-tetrahydro-1H-[1,4]diazepino[1,2-b]indazol-1-one dihydrochloride] | 275 nM |  | 
4 | O=C1c2c3ccccc3nn2CCCN1CC1CCCN(CCc2ccccc2F)C1 (stereo not shown) [Compound 13, 2-({1-[2-(2-fluorophenyl)ethyl]piperidin-3-yl}methyl)-2,3,4,5-tetrahydro-1H-[1,4]diazepino[1,2-b]indazol-1-one dihydrochloride] | 257 nM |  | 
5 | Cl.O=C1c2c3ccccc3nn2CCCN1CC1CCN(CCc2ccc(F)cc2)CC1 [Compound 16, 2-({1-[2-(4-fluorophenyl)ethyl]piperidin-4-yl}methyl)-2,3,4,5-tetrahydro-1H-[1,4]diazepino[1,2-b]indazol-1-one hydrochloride] | 7.24 nM | 56% | > 10000 nM
6 | O=C1c2c3c(nn2CCN1CC1CCN(CCc2ccc(F)cc2)CC1)CCCC3 [Compound 17, 2-({1-[2-(4-fluorophenyl)ethyl]piperidin-4-yl}methyl)-3,4,7,8,9,10-esahydropyrazino[1,2-b]indazol-1(2H)-one hydrochloride] | 29.5 nM | 32% | 7410 nM
7 | Cc1cc2c(cc1Cl)N(C(=O)Nc1ccc(Oc3cccnc3C)nc1)CC2 [SB 242084, reference compound] |  |  | 0.468 nM

More lines, main results first:

Row | Ki (human 5-HT2A receptor) | SMILES | % INHIBITION (number of head twitches vs vehicle treated group) (serotoninergic system) | Ki (human 5-HT2C receptor)
8 | 692 nM | O=C1c2c3ccccc3nn2CCN1CC1CCCN(CCc2ccccc2F)C1 (stereo not shown) [Compound 5, 2-({1-[2-(2-fluorophenyl)ethyl]piperidin-3-yl}methyl)-3,4-dihydropyrazino[1,2-b]indazol-1(2H)-one hydrochloride] |  | 
9 | 1.82 nM | O=C1c2c3ccccc3nn2CCN1CC1CCN(CCc2ccccc2F)CC1 [Compound 8, 2-({1-[2-(2-fluorophenyl)ethyl]piperidin-4-yl}methyl)-3,4-dihydropyrazino[1,2-b]indazol-1(2H)-one] | 70% | 
10 | 16.6 nM | O=C1c2c3ccccc3nn2CCN1CC1CCN(CCc2ccccc2)CC1 [Compound 20, 2-[(1-phenethylpiperidin-4-yl)methyl]-3,4-dihydropyrazino[1,2-b]indazol-1(2H)-one hydrochloride] |  | 
11 | 20.9 nM | O=C1c2c3ccccc3nn2CCCN1CC1CCN(CCc2ccccc2)CC1 [Compound 22, 2-[(1-phenethylpiperidin-4-yl)methyl]-2,3,4,5-tetrahydro-1H-[1,4]diazepino[1,2-b]indazol-1-one] |  | 
12 | 74.1 nM | O=C1c2c3ccccc3nn2CCN1CCCN1CCC(c2ccccc2)CC1 [Compound 28, 2-[3-(4-phenylpiperidin-1-yl)propyl]-3,4-dihydropyrazino[1,2-b]indazol-1(2H)-one hydrochloride] |  | > 10000 nM
13 | 45.7 nM | O=C1c2c3ccccc3nn2CCCN1CCCN1CCC(c2ccccc2)CC1 [Compound 31, 2-[3-(4-phenylpiperidin-1-yl)propyl]-2,3,4,5-tetrahydro-1H-[1,4]diazepino[1,2-b]indazol-1-one hydrochloride] |  | > 10000 nM
